Experimental data reported in patent US20140294729A1, “METHODS FOR IDENTIFICATION AND USE OF AGENTS TARGETING CANCER STEM CELLS” (Whitehead Institute for Biomedical Research, priority 2008, published 2014).
“Also recorded” adds a separate entry of the source.

What was measured:
HMLEshEcad cells = test: Resistance to cytotoxic agents, immortalized HMLEshCntrl vs HMLEshEcad (MTS viability); format: cell-based, human; details: three concentrations, FIG. 2B
Description: FIGS. 2A-2D depict that passage through the EMT leads to resistance to conventional chemotherapy drugs. FIG. 2A depicts dose response curves of transformed HMLERshCntrl (light gray line) and HMLERshEcad (dark gray line) cells treated with Paclitaxel and Doxorubicin. Dotted line denotes the 50% fraction surviving. […] FIG. 2B depicts the response of immortalized cells to chemotherapy drugs. HMLEshCntrl and HMLEshEcad cells were treated with the indicated drugs at three concentrations for 3 days and assayed for viability using the MTS assay. While Doxorubucin, Actinomycin D, Paclitaxel and Campthotecin are chemotherapeutic drugs, Staurosporine is a general kinase inhibitor that potently induce apoptosis. FIGS. 2C and 2D depict paclitaxel treatment leads to selective expansion of a minority cell population that has undergone an EMT. Control HMLE cells and GFP expressing HMLEshEcad cells were mixed at a ratio of 20:1 and seeded onto 6-well plates in triplicate. DMSO or Paclitaxel at 2.5 nm or 10 nm concentration was added onto the mixed cell populations 1 day after seeding followed by a 3 day incubation. The number of GFP-positive cells at the end of treatment were analyzed by flow cytometry. […] Note the increase in GFP positivity from 5% to 14% upon […] Paclitaxel treatment.
However, we postulated that the differential drug sensitivity observed was, rather, a consequence of the respective differentiation states of the immortalized cells from which the cancer cell lines were derived. To directly examine this hypothesis, we treated HMLEsiGFP and HMLEsiEcad cells for a period of […] with a series of chemical compounds at 3 different concentrations each. Included in these compounds were the established chemotherapy drugs Doxorubicin, Paclitaxel, Actinomycin D, Camptothecin as well as a broad kinase inhibitor, Staurosporine.
Doxorubicin, paclitaxel, actinomycin D, campthotecin and staurosporine were purchased from Sigma and dissolved in dimethyl sulfoxide (dmso). 5000 cells in 100 ul of medium were plated per well in 96-well plates. 24 hrs after seeding, compounds at the indicated concentration were added to wells (5 wells per each concentration). Dmso treatment was used as negative control. Cell viability was measured after 72 hrs using the CellTiter96 AQueous Assay (Promega) according to manufacturer's instructions. Dose response curves were generated with GraphPad Prism software (GraphPad Software, Inc.).

[1] = test system: breast CSC and progenitor genes; test: Gene set enrichment analysis of stem-like cell gene sets after treatment; format: cell-based; details: in comparison with paclitaxel treatment, FIG. 16
From the text: (§1) Gene set enrichment analysis was used to determine whether three previously reported sets of genes associated with stem-like cells were repressed in response to salinomycin in comparison with paclitaxel treatment. Graphed are the Kolmogorov-Smimov enrichment scores versus Gene ranks based on differential expression. P-values reflecting statistical significance for each analysis are shown.
as §1, with “Kolmogorov-Smirnov” for “Kolmogorov-Smimov”, “shown. The three previously reported gene signatures are: CD44+CD24− IGS (Liu et al., 2007), CD44+CD24− (Shipitsin et al., 2007) and Mammosphere (Dontu et al., 2003). (FIG. 16.)” for “shown.”

HMLER cells = test: Growth rate of HMLER cultures after treatment; format: cell-based, human; details: FIG. 6B
Description: FIGS. 6A and 6B depict effects of salinomycin on the CSC population in HMLER cell line. (FIG. 6A) HMLER cells were treated with vehicle control (dmso), salinomycin or paclitaxel at the indicated concentrations for 15 days. FACS analysis were performed at the end of treatment to gauge the CD44+/CD24− CSC population (right panels). Note that salinomycin decreases the CD44+/CD24− population from a basal of 4.9% to 0.2%. Treated cultures were also subjected to the mammosphere formation assay (left panels). Number of mammopsheres formed per 1000 cells from each culture are indicated below the representative photographs of assay wells. (FIG. 6B) Growth rates of HMLER cultures after treatment with vehicle control (dmso), salinomycin or paclitaxel at the indicated concentrations in (A) for 15 days.
We then turned to the critical question of whether the compounds had the general ability to inhibit CSCs in breast cancer cell lines. […] We next compared the effects of salinomycin, control vehicle DMSO and paclitaxel on HMLER cells. […] The CD44+/CD24− fraction was thus 360-fold lower following treatment with salinomycin than with paclitaxel (FIG. 6A). Proliferation of the bulk population was not inhibited following treatment with salinomycin relative to either vehicle- or paclitaxel-treatment (FIG. 6B).

HMLE-Twist cells [2] = test: Co-culture of GFP-expressing HMLE cells and unlabelled HMLE-Twist cells, FACS for GFP positivity; format: cell-based, human; details: FIG. 4C
Description: (§2) FIG. 4A depicts dose response curves of HMLEshCntrl (A, light gray curve) and HMLEshEcad (A, dark gray curve) cells treated with the 8 compounds identified during the initial screen. 1000 cells of each line were seeded onto 384 well plates and treated with 8 different concentrations of compounds within a 2.5 log range. The cell viability after 3 day treatment was measured by Cell-Titer-Glo. […] FIG. 4B depicts dose response curves of HMLEshCntrl (curve with square data points) and HMLE-Twist (curve with triangular data points) cells treated with the same compounds as in (A). Note that selectivity of Salinomycin, Abamectin, Etoposide and Nigericin (Top, Left-to-Right) is retained even though a different method of EMT induction is used. […] 1 Day after seeding DMSO, Salinomycin (1.25 or 5 μM) or Abamectin (0.25 or 1.25 μM) was added at the indicated concentration. As the GFP vector contains a Blasticidin resistance gene, we used Blasticidin treatment as a positive control for the expansion of GFP-expressing control HMLE cells. After 3 day incubation the mix population of cells were analyzed by flow cytometry and the percentage of GFP-positive cells were determined. […] FIG. 4D depicts dose response curves of transformed HMLERshCntrl (light gray line) and HMLERshEcad (dark gray lines) cells treated with Salinomycin and Abamectin. Dotted line denotes the 50% fraction surviving.
To examine the effects of salinomycin and abamectin treatment on heterogeneous populations of epithelial cells that have and epithelial cells that have not undergone EMT, we co-mixed GFP-labeled HMLE cells with unlabeled HMLE-Twist cells, treating the resulting co-cultures with compounds. As a positive control for this experiment we treated co-cultures with blasticidin, which selects for the differentiated HMLE-GFP cells, which harbor a blasticidin-resistance gene.
For the mix experiments, unlabelled and GFP-labeled cells were mixed at the indicated ratios and seeded onto 6-well plates. Triplicate wells were then treated with dmso or the compounds (paclitaxel, salinomycin, abamectin and blasticidin) for 48 hrs. The cells were washed with PBS, trypsinized and analyzed by FACS for GFP positivity.

HMLE-Twist cells [3] = test: Dose-response viability of HMLEshCntrl vs HMLE-Twist cells; format: cell-based, human; details: EMT induced by Twist, FIG. 4B
Description: as §2
Individual compounds were purchased from Sigma and dissolved in DMSO with the exception of nigericin which was dissolved in 100% ethanol. Activity of the compounds were quantified by generating dose-response curves for HMLE-shCntrl, HMLE-shEcad and HMLE-Twist under the same cell density and culture conditions described for the initial screen, using the 384-well plate based system.

Compound | resistance of HMLEshEcad cells relative to HMLEshCntrl control cells (HMLEshEcad cells) | expression of clinically relevant breast CSC and progenitor genes [1] | proliferation of the bulk population relative to vehicle- or paclitaxel-treatment (HMLER cells) | GFP-positive fraction relative to DMSO-treated controls (HMLE-Twist cells [2]; GFP-labeled HMLE + unlabeled HMLE-Twist) | proportion of HMLETwist cells in co-culture with control cells (HMLE-Twist cells [2]; Salinomycin 1.25 or 5 μM, Abamectin 0.25 or 1.25 μM) | selectivity for HMLE-Twist cells vs HMLEshCntrl; dose-response curves compared with HMLEshEcad (HMLE-Twist cells [3])
CC(=O)O[C@H]1C(=O)[C@@]2(C)[C@H]([C@H](OC(=O)c3ccccc3)[C@]3(O)C[C@H](OC(=O)[C@H](O)[C@@H](NC(=O)c4ccccc4)c4ccccc4)C(C)=C1C3(C)C)[C@]1(OC(C)=O)CO[C@@H]1C[C@@H]2O [paclitaxel] | increased resistance | – | – | – | – | –
CC[C@@H](C(=O)[C@@H](C)[C@@H](O)[C@H](C)[C@@H]1O[C@@H]([C@@H](CC)C(=O)O)CC[C@@H]1C)[C@H]1O[C@]2(C=C[C@@H](O)[C@]3(CC[C@@](C)([C@H]4CC[C@](O)(CC)[C@H](C)O4)O3)O2)[C@H](C)C[C@@H]1C [salinomycin] | – | reduces the expression | not inhibited | increase | dose-dependent decrease; also recorded: selection against the GFP-negative HMLE-twist cells | is retained
